The source of these data is US20190388425A1, “SUBSTITUTED IMIDAZOPYRIDINPYRIMIDINES” (Bayer Pharma Aktiengesellschaft, priority 2017, published 2019).

Structures are written as SMILES.

The term IC50 denotes the concentration that gives 50% inhibition.

The test has as its target T1, human full-length MKNK1 (Homo sapiens, UniProt Q9BUB5, T385D).
T1 construct: GST (N); purchased Carna Biosciences 02-145; host or cells: insect cells (baculovirus expression system)
Description: MKNK1 kinase high ATP assay (TR-FRET). In kind it is biochemical. The following applies: TR-FRET, 2 mM ATP (high ATP), 15 min preincubation with enzyme, 30 min reaction at 22° C.; read-out: MKNK1 IC50. In a few lines: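 Full-length human MKNK1 (T385D) preincubated 15 min at 22 °C with compound in HEPES pH 7.5/MgCl2/DTT buffer; reaction with 2 mM ATP (final) and 0.06 μM biotinylated peptide (final), 30 min at 22 °C.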
Background: Time-resolved FRET reads energy transfer from a long-lived donor to a nearby acceptor.

T1 sequence (Q9BUB5 1-424 isoform Q9BUB5-2 T344D): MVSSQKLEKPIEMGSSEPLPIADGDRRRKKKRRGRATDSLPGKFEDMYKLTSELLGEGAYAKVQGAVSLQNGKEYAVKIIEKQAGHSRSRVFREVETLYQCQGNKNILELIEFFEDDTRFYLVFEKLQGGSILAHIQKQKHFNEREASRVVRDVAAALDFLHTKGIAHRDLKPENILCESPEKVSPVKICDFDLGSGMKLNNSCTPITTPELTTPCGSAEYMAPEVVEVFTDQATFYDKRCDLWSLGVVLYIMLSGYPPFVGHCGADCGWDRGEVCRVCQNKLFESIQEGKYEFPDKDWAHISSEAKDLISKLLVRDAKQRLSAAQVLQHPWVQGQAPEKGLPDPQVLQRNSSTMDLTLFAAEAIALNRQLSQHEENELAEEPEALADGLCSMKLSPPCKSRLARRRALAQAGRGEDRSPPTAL

For `Cc1cc(Nc2ncnc3sc4c(c23)CC[C@H](C(=O)N2CCC2)C4)c(=O)n2c1C(=O)NC21CCCCC1` [Example 3, 6′-{[(7S)-7-(Azetidin-1-ylcarbonyl)-5,6,7,8-tetrahydro[1]benzothieno[2,3-d]pyrimidin-4-yl]amino}-8′-methyl-2′H-spiro[cyclohexane-1,3′-imidazo[1,5-a]pyridine]-1′,5′-dione], the IC50 was determined as 0.3 nM.
On to `Cc1cc(Nc2ncnc3sc4c(c23)CC[C@H](C(=O)N2C[C@H]3C[C@@H]2CO3)C4)c(=O)n2c1C(=O)NC21CCC(F)(F)CC1` [Example 58, 4,4-Difluoro-8′-methyl-6′-({(7S)-7-[(1R,4R)-2-oxa-5-azabicyclo[2.2.1]hept-5-ylcarbonyl]-5,6,7,8-tetrahydro[1]benzothieno[2,3-d]pyrimidin-4-yl}amino)-2′H-spiro[cyclohexane-1,3′-imidazo[1,5-a]pyridine]-1′,5′-dione], for which the IC50 was found to be 0.5 nM.
Turning to `C[C@@H]1CN(C(=O)[C@H]2CCc3c(sc4ncnc(Nc5cc(Cl)c6n(c5=O)C5(CCC5)NC6=O)c34)C2)CCN1C` [Example 100, 8′-Chloro-6′-({(7S)-7-[(3R)-3,4-dimethylpiperazine-1-carbonyl]-5,6,7,8-tetrahydro[1]benzothieno[2,3-d]pyrimidin-4-yl}amino)-2′H-spiro[cyclobutane-1,3′-imidazo[1,5-a]pyridine]-1′,5′-dione], the IC50 was found to be 0.1 nM.
With `Cc1cc(Nc2ncnc3sc4c(c23)CC[C@H](C(=O)N(C)C)C4)c(=O)n2c1C(=O)N[C@]21CC[C@@](O)(C(F)(F)F)CC1` [Example 60, (7S)-4-{[(cis)-4-Hydroxy-8′-methyl-1′,5′-dioxo-4-(trifluoromethyl)-1′,5′-dihydro-2′H-spiro[cyclohexane-1,3′-imidazo[1,5-a]pyridin]-6′-yl]amino}-N,N-dimethyl-5,6,7,8-tetrahydro[1]benzothieno[2,3-d]pyrimidine-7-carboxamide], the IC50 turned out to be 9.5 nM.
`Cc1cc(Nc2ncnc3sc4c(c23)CC[C@H](C(=O)N2CCN(C)[C@H](C)C2)C4)c(=O)n2c1C(=O)NC21CCCC1` [Example 35, 6′-{[(7S)-7-{[(3R)-3,4-Dimethylpiperazin-1-yl]carbonyl}-5,6,7,8-tetrahydro[1]benzothieno[2,3-d]pyrimidin-4-yl]amino}-8′-methyl-2′H-spiro[cyclopentane-1,3′-imidazo[1,5-a]pyridine]-1′,5′-dione]: the 50% inhibitory concentration (IC50) was 0.4 nM.
For the compound `Cc1cc(Nc2ncnc3sc4c(c23)CC[C@H](C(=O)N2C[C@H]3C[C@@H]2CO3)C4)c(=O)n2c1C(=O)NC21CCCC1` [Example 36, 8′-Methyl-6′-({(7S)-7-[(1R,4R)-2-oxa-5-azabicyclo[2.2.1]hept-5-ylcarbonyl]-5,6,7,8-tetrahydro[1]benzothieno[2,3-d]pyrimidin-4-yl}amino)-2′H-spiro[cyclopentane-1,3′-imidazo[1,5-a]pyridine]-1′,5′-dione], the IC50 stood at 1.3 nM.
For `Cc1cc(Nc2ncnc3sc4c(c23)CC[C@H](C(=O)N2C[C@H]3C[C@@H]2CO3)C4)c(=O)n2c1C(=O)NC21CS(=O)(=O)C1` [Example 72, 8-Methyl-6-({(7S)-7-[(1R,4R)-2-oxa-5-azabicyclo[2.2.1]hept-5-ylcarbonyl]-5,6,7,8-tetrahydro[1]benzothieno[2,3-d]pyrimidin-4-yl}amino)-2H-spiro[imidazo[1,5-a]pyridine-3,3′-thietane]-1,5-dione 1′,1′-dioxide], the IC50 is 0.7 nM.
In the case of `Cc1cc(Nc2ncnc3sc4c(c23)CCCC4)c(=O)n2c1C(=O)NC21CCCCC1` [Example 43, 8′-Methyl-6′-(5,6,7,8-tetrahydro[1]benzothieno[2,3-d]pyrimidin-4-ylamino)-2′H-spiro[cyclohexane-1,3′-imidazo[1,5-a]pyridine]-1′,5′-dione] it was 9.9 nM; in that of `Cc1cc(Nc2ncnc3sc4c(c23)CC[C@H](C(=O)N2CC(N(C)C)C2)C4)c(=O)n2c1C(=O)N[C@]21CC[C@@](O)(C(F)(F)F)CC1` [Example 62], 6.5 nM.
On to `C[C@@H]1COCCN1C(=O)[C@H]1CCc2c(sc3ncnc(Nc4cc(Cl)c5n(c4=O)C4(CCC4)NC5=O)c23)C1` [Example 99, 8′-Chloro-6′-({(7S)-7-[(3R)-3-methylmorpholine-4-carbonyl]-5,6,7,8-tetrahydro[1]benzothieno[2,3-d]pyrimidin-4-yl}amino)-2′H-spiro[cyclobutane-1,3′-imidazo[1,5-a]pyridine]-1′,5′-dione], for which the IC50 stood at 0.1 nM.
Take `Cc1cc(Nc2ncnc3sc4c(c23)CC[C@H](C(=O)N2CC(NC(=O)OC(C)(C)C)C2)C4)c(=O)n2c1C(=O)NC21CCCCC1` [Example 7, tert-Butyl [1-({(7S)-4-[(8′-methyl-1′,5′-dioxo-1′,5′-dihydro-2′H-spiro[cyclohexane-1,3′-imidazo[1,5-a]pyridin]-6′-yl)amino]-5,6,7,8-tetrahydro[1]benzothieno[2,3-d]pyrimidin-7-yl}carbonyl)azetidin-3-yl]carbamate]: the IC50 worked out at 4.2 nM.
Regarding `Cc1cc(Nc2ncnc3sc4c(c23)CC[C@H](C(=O)N2CC(C#N)C2)C4)c(=O)n2c1C(=O)NC21CSC1` [Example 47, 1-({(7S)-4-[(8-Methyl-1,5-dioxo-1,5-dihydro-2H-spiro[imidazo[1,5-a]pyridine-3,3′-thietan]-6-yl)amino]-5,6,7,8-tetrahydro[1]benzothieno[2,3-d]pyrimidin-7-yl}carbonyl)azetidine-3-carbonitrile], the IC50 stood at 0.8 nM.
For `C[C@@H]1CN(C(=O)[C@H]2CCc3c(sc4ncnc(Nc5cc(Cl)c6n(c5=O)C5(CSC5)NC6=O)c34)C2)CCN1C` [Example 107, 8-Chloro-6-({(7S)-7-[(3R)-3,4-dimethylpiperazine-1-carbonyl]-5,6,7,8-tetrahydro[1]benzothieno[2,3-d]pyrimidin-4-yl}amino)-2H-spiro[imidazo[1,5-a]pyridine-3,3′-thietane]-1,5-dione], the IC50 is 0.2 nM.
For the compound `CC1(C)NC(=O)c2c(Cl)cc(Nc3ncnc4sc5c(c34)CC[C@H](C(=O)O)C5)c(=O)n21` [Example 109, (7S)-4-[(8-Chloro-3,3-dimethyl-1,5-dioxo-1,2,3,5-tetrahydroimidazo[1,5-a]pyridin-6-yl)amino]-5,6,7,8-tetrahydro[1]benzothieno[2,3-d]pyrimidine-7-carboxylic acid], the IC50 came out at 26.7 nM.
In the case of `N#CC1CN(C(=O)[C@H]2CCc3c(sc4ncnc(Nc5cc(Cl)c6n(c5=O)C5(CCC5)NC6=O)c34)C2)C1` [Example 97, 1-{(7S)-4-[(8′-Chloro-1′,5′-dioxo-1′,5′-dihydro-2′H-spiro[cyclobutane-1,3′-imidazo[1,5-a]pyridin]-6′-yl)amino]-5,6,7,8-tetrahydro[1]benzothieno[2,3-d]pyrimidine-7-carbonyl}azetidine-3-carbonitrile] it was 0.1 nM; in that of `O=C1NC2(CCC2)n2c1c(Cl)cc(Nc1ncnc3sc4c(c13)CC[C@H](C(=O)O)C4)c2=O` [Example 93, (7S)-4-[(8′-Chloro-1′,5′-dioxo-1′,5′-dihydro-2′H-spiro[cyclobutane-1,3′-imidazo[1,5-a]pyridin]-6′-yl)amino]-5,6,7,8-tetrahydro[1]benzothieno[2,3-d]pyrimidine-7-carboxylic acid], 1.3 nM; in that of `O=C1NC2(CCCC2)n2c1c(Cl)cc(Nc1ncnc3sc4c(c13)CC[C@H](C(=O)O)C4)c2=O` [Example 84, (7S)-4-[(8′-Chloro-1′,5′-dioxo-1′,5′-dihydro-2′H-spiro[cyclopentane-1,3′-imidazo[1,5-a]pyridin]-6′-yl)amino]-5,6,7,8-tetrahydro[1]benzothieno[2,3-d]pyrimidine-7-carboxylic acid], 1 nM.
Consider `C[C@@H]1COCCN1C(=O)[C@H]1CCc2c(sc3ncnc(Nc4cc(Cl)c5n(c4=O)C4(CCCCC4)NC5=O)c23)C1` [Example 79, 8′-Chloro-6′-{[(7S)-7-{[(3R)-3-methylmorpholin-4-yl]carbonyl}-5,6,7,8-tetrahydro[1]benzothieno[2,3-d]pyrimidin-4-yl]amino}-2′H-spiro[cyclohexane-1,3′-imidazo[1,5-a]pyridine]-1′,5′-dione], for which the IC50 was 0.3 nM.
For `O=C1NC2(CSC2)n2c1c(Cl)cc(Nc1ncnc3sc4c(c13)CC[C@H](C(=O)O)C4)c2=O` [Example 101, (7S)-4-[(8-Chloro-1,5-dioxo-1,5-dihydro-2H-spiro[imidazo[1,5-a]pyridine-3,3′-thietan]-6-yl)amino]-5,6,7,8-tetrahydro[1]benzothieno[2,3-d]pyrimidine-7-carboxylic acid], the IC50 worked out at 1.8 nM.
In the case of `CN(C)C(=O)[C@H]1CCc2c(sc3ncnc(Nc4cc(Cl)c5n(c4=O)C4(CCCC4)NC5=O)c23)C1` [Example 86, (7S)-4-[(8′-Chloro-1′,5′-dioxo-1′,5′-dihydro-2′H-spiro[cyclopentane-1,3′-imidazo[1,5-a]pyridin]-6′-yl)amino]-N,N-dimethyl-5,6,7,8-tetrahydro[1]benzothieno[2,3-d]pyrimidine-7-carboxamide] it was 0.1 nM.
On to `Cc1cc(Nc2ncnc3sc4c(c23)CC[C@H](C(=O)N2CCC2)C4)c(=O)n2c1C(=O)NC21CCC(F)(F)CC1` [Example 53, 6′-{[(7S)-7-(Azetidin-1-ylcarbonyl)-5,6,7,8-tetrahydro[1]benzothieno[2,3-d]pyrimidin-4-yl]amino}-4,4-difluoro-8′-methyl-2′H-spiro[cyclohexane-1,3′-imidazo[1,5-a]pyridine]-1′,5′-dione], for which the IC50 stood at 13.5 nM.
`Cc1cc(Nc2ncnc3sc4c(c23)CC[C@H](C(=O)N(C)C)C4)c(=O)n2c1C(=O)NC21CCCC1` [Example 37, (7S)—N,N-Dimethyl-4-[(8′-methyl-1′,5′-dioxo-1′,5′-dihydro-2′H-spiro[cyclopentane-1,3′-imidazo[1,5-a]pyridin]-6′-yl)amino]-5,6,7,8-tetrahydro[1]benzothieno[2,3-d]pyrimidine-7-carboxamide]: the IC50 turned out to be 0.7 nM.
